The values that follow come from patent US20170349593A1, “BTK INHIBITORS” (MERCK SHARP & DOHME CORP., priority 2014, published 2017).

Assay [1] deals with adenosine uptake into HeLa cells. In words: [3H]Adenosine uptake assay. The format is cell-based. The following applies: Homo sapiens; accumulation of [3H]adenosine into HeLa cells; concentration range 10 μM to 0.032 nM; read-out: ADU inhibition IC50. An outline of the steps: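 HeLa cells (25 000/well), plated overnight, were preincubated 30 minutes at ambient temperature with compound in HBSS + 5% FBS. Ten-point titrations ran from 10 μM to 0.032 nM final. [3H]adenosine was added from a 500 nM solution for 60 minutes, and uptake was measured by scintillation proximity counting; IC50 came from a 4-parameter fit.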

The target of assay [2] is T1, BTK enzyme (recombinant full-length BTK, hBTK) (Homo sapiens, UniProt Q06187).
T1 construct: recombinant protein from baculovirus-transfected S 19 cells: full-length BTK, 6 HIS-tag cleaved; 6 HIS-tag (cleaved yes); made in house
As to the kind of experiment: Btk enzyme activity assay (LANCE TR-FRET). It counts as biochemical. The following applies: 50 pM hBTK, 25 μM ATP, 60 minute compound and enzyme incubation, concentration range 1 μM to 0.017 nM, read-out: BTK binding IC50. A general note: In TR-FRET formats the signal depends on donor and acceptor labels being close together.

T1 sequence (Q06187 whole entry): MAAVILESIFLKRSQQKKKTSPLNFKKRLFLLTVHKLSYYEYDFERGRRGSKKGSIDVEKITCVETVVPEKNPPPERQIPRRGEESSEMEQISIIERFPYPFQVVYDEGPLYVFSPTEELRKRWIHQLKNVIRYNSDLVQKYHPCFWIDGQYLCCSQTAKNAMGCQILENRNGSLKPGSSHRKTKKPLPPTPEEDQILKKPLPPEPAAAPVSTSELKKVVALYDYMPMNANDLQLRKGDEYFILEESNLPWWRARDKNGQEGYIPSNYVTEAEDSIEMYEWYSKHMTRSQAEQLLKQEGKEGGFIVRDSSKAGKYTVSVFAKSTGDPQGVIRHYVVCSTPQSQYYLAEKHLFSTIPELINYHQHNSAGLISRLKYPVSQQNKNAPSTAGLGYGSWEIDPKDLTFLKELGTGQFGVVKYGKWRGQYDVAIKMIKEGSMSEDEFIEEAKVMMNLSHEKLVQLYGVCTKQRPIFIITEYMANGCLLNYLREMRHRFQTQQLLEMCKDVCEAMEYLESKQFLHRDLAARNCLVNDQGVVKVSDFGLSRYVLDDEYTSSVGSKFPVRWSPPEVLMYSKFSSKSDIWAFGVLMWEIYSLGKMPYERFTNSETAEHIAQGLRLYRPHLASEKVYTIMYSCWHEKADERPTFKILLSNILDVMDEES

As usually defined, the IC50 is the midpoint of a concentration-inhibition curve. Consider `C[C@H](O)C(=O)N1C[C@H](c2nc(-c3ccc(C(=O)Nc4cc(C(F)(F)F)ccn4)cc3)c3c(N)nccn23)OC[C@@H]1C` [Example 80, 4-(8-amino-3-{(2R,5S)-4-[(2S)-2-hydroxypropanoyl]-5-methylmorpholin-2-yl}imidazo[1,5-a]pyrazin-1-yl)-N-[4-(trifluoromethyl)pyridin-2-yl]benzamide], for which the half-maximal inhibitory concentration (IC50) in assay [1] was 188 nM; in assay [2], 0.4 nM.

Turning to `CCOc1cc(C(=O)Nc2cc(C(F)(F)F)ccn2)ccc1-c1nc([C@H]2CN(Cc3cnn(C)c3)[C@@H](C)CO2)n2c(Cl)cnc(N)c12` [Example 23, 4-(8-amino-5-chloro-3-{(2R,5S)-5-methyl-4-[(1-methyl-1H-pyrazol-4-yl)methyl]morpholin-2-yl}imidazo[1,5-a]pyrazin-1-yl)-3-ethoxy-N-[4-(trifluoromethyl)pyridin-2-yl]benzamide], the half-maximal inhibitory concentration (IC50) in assay [1] is 1200 nM; in assay [2], 3.02 nM.

Take `CCC(=O)N1C[C@H](c2nc(-c3ccc(C(=O)Nc4cc(C(F)(F)F)ccn4)cc3OC)c3c(N)ncc(Cl)n23)OC[C@@H]1C` [Example 16, 4-{8-amino-5-chloro-3-[(2R,5S)-5-methyl-4-propanoylmorpholin-2-yl]imidazo[1,5-a]pyrazin-1-yl}-3-methoxy-N-[4-(trifluoromethyl)pyridin-2-yl]benzamide]: the half-inhibitory concentration (IC50) worked out at 2790 nM in assay [1] and 1.25 nM in assay [2].

Consider `C[C@H]1CC[C@@H](c2nc(-c3ccc(C(=O)Nc4cc(C(C)(F)F)ccn4)cc3)c3c(N)nccn23)CN1C(=O)CO` [Example 95, 4-{8-amino-3-[(3R,6S)-1-(hydroxyacetyl)-6-methylpiperidin-3-yl]imidazo[1,5-a]pyrazin-1-yl}-N-[4-(1,1-difluoroethyl)pyridin-2-yl]benzamide], for which the IC50 turned out to be 175 nM in assay [1] and 0.168 nM in assay [2].

As for `COc1cc(C(=O)Nc2cc(C(F)(F)F)ccn2)ccc1-c1nc([C@H]2CN(Cc3cnn(C)c3)[C@@H](C)CO2)n2c(Cl)cnc(N)c12` [Example 25, 4-(8-amino-5-chloro-3-{(2R,5S)-5-methyl-4-[(1-methyl-1H-pyrazol-4-yl)methyl]morpholin-2-yl}imidazo[1,5-a]pyrazin-1-yl)-3-methoxy-N-[4-(trifluoromethyl)pyridin-2-yl]benzamide], the 50% inhibitory concentration (IC50) is 930 nM in assay [1] and 1.94 nM in assay [2].

Take `COc1cc(C(=O)Nc2cc(C(F)(F)F)ccn2)ccc1-c1nc([C@H]2CN(C(=O)[C@@H](C)O)[C@@H](C)CO2)n2c(Cl)cnc(N)c12` [Example 14, 4-(8-amino-5-chloro-3-{(2R,5S)-4-[(2R)-2-hydroxypropanoyl]-5-methylmorpholin-2-yl}imidazo[1,5-a]pyrazin-1-yl)-3-methoxy-N-[4-(trifluoromethyl)pyridin-2-yl]benzamide]: the IC50 in assay [1] came out at 1690 nM; in assay [2] it was 2.04 nM.

In the case of `C[C@H]1CC[C@@H](c2nc(-c3ccc(C(=O)Nc4cc(C(F)F)ccn4)cc3)c3c(N)nccn23)CN1C(=O)N(C)C` [Example 92, (2S,5R)-5-[8-amino-1-(4-{[4-(difluoromethyl)pyridin-2-yl]carbamoyl}phenyl)imidazo[1,5-a]pyrazin-3-yl]-N,N,2-trimethylpiperidine-1-carboxamide], the figures for the IC50 in assay [1] and in assay [2] were 22.4 nM and 0.215 nM, respectively.

Turning to `COc1cc(C(=O)Nc2cc(C(F)(F)F)ccn2)ccc1-c1nc([C@H]2CN(C3CN(Cc4ccc(F)cc4)C3)[C@@H](C)CO2)n2ccnc(N)c12` [Example 31, 4-(8-amino-3-{(2R,5S)-4-[1-(4-fluorobenzyl)azetidin-3-yl]-5-methylmorpholin-2-yl}imidazo[1,5-a]pyrazin-1-yl)-3-methoxy-N-[4-(trifluoromethyl)pyridin-2-yl]benzamide], the concentration for half-maximal inhibition (IC50) came out at 1040 nM in assay [1] and 4.49 nM in assay [2].

Consider `COc1cc(C(=O)Nc2cc(C(F)(F)F)ccn2)ccc1-c1nc([C@H]2CN(C(=O)[C@H](C)OC)[C@@H](C)CO2)n2c(Cl)cnc(N)c12` [Example 13, 4-(8-amino-5-chloro-3-{(2R,5S)-4-[(2S)-2-methoxypropanoyl]-5-methylmorpholin-2-yl}imidazo[1,5-a]pyrazin-1-yl)-3-methoxy-N-[4-(trifluoromethyl)pyridin-2-yl]benzamide], for which the IC50 in assay [1] stood at 1710 nM; in assay [2], 3.89 nM.

Consider `CCOc1cc(C(=O)Nc2cc(C(F)(F)F)ccn2)ccc1-c1nc([C@H]2CN(C(=O)C3CC3)[C@@H](C)CO2)n2c(Cl)cnc(N)c12` [Example 8, 4-{8-amino-5-chloro-3-[(2R,5S)-4-(cyclopropylcarbonyl)-5-methylmorpholin-2-yl]imidazo[1,5-a]pyrazin-1-yl}-3-ethoxy-N-[4-(trifluoromethyl)pyridin-2-yl]benzamide], for which the figures for the IC50 in assay [1] and in assay [2] were at least 10000 nM and 1.19 nM, respectively.

`C[C@H](O)C(=O)N1C[C@H](c2nc(-c3ccc(C(=O)Nc4cc(C(F)(F)F)ccn4)cc3F)c3c(N)nccn23)OC[C@@H]1C` [Example 84, 4-(8-amino-3-{(2R,5S)-4-[(2S)-2-hydroxypropanoyl]-5-methylmorpholin-2-yl}imidazo[1,5-a]pyrazin-1-yl)-3-fluoro-N-[4-(trifluoromethyl)pyridin-2-yl]benzamide]: the values for the 50% inhibitory concentration (IC50) in assay [1] and in assay [2] were 360 nM and 0.368 nM, respectively.

`CCOc1cc(C(=O)Nc2cc(C(F)(F)F)ccn2)ccc1-c1nc([C@H]2CC[C@@H](C(F)(F)F)N(C(=O)C3CC3)C2)n2ccnc(N)c12` [Example 3, 4-{8-amino-3-[(3S,6S)-1-(cyclopropylcarbonyl)-6-(trifluoromethyl)piperidin-3-yl]imidazo[1,5-a]pyrazin-1-yl}-3-ethoxy-N-[4-(trifluoromethyl)pyridin-2-yl]benzamide]: the IC50 in assay [1] came out at 859 nM; in assay [2], 1000 nM.

For the compound `COCC(=O)N1C[C@H](c2nc(-c3ccc(C(=O)Nc4cc(C(F)(F)F)ccn4)cc3F)c3c(N)nccn23)OC[C@H]1C` [Example 70, 4-{8-amino-3-[(2R,5R)-4-(methoxyacetyl)-5-methylmorpholin-2-yl]imidazo[1,5-a]pyrazin-1-yl}-3-fluoro-N-[4-(trifluoromethyl)pyridin-2-yl]benzamide], the IC50 in assay [1] is 135 nM; in assay [2], 13.8 nM.

For the compound `CCOc1cc(C(=O)Nc2cc(C(F)(F)F)ccn2)ccc1-c1nc([C@H]2CN(C(=O)[C@@H](C)O)[C@@H](C)CO2)n2c(Cl)cnc(N)c12` [Example 11, 4-(8-amino-5-chloro-3-{(2R,5S)-4-[(2R)-2-hydroxypropanoyl]-5-methylmorpholin-2-yl}imidazo[1,5-a]pyrazin-1-yl)-3-ethoxy-N-[4-(trifluoromethyl)pyridin-2-yl]benzamide], the half-inhibitory concentration (IC50) in assay [1] is 3120 nM; in assay [2], 1.42 nM.

With `C=Cc1cnc(N)c2c(-c3ccc(C(=O)Nc4cc(C(F)(F)F)ccn4)cc3OC)nc([C@H]3CN(C(=O)C4CC4)[C@@H](C)CO3)n12` [Example 10, 4-{8-amino-3-[(2R,5S)-4-(cyclopropylcarbonyl)-5-methylmorpholin-2-yl]-5-ethenylimidazo[1,5-a]pyrazin-1-yl}-3-methoxy-N-[4-(trifluoromethyl)pyridin-2-yl]benzamide], the IC50 in assay [1] stood at 1200 nM; in assay [2], 0.528 nM.

For the compound `COCC(=O)N1C[C@H](c2nc(-c3ccc(C(=O)Nc4cc(C(F)(F)F)ccn4)cc3)c3c(N)nccn23)OC[C@@H]1C` [Example 78, 4-{8-amino-3-[(2R,5S)-4-(methoxyacetyl)-5-methylmorpholin-2-yl]imidazo[1,5-a]pyrazin-1-yl}-N-[4-(trifluoromethyl)pyridin-2-yl]benzamide], the IC50 turned out to be 260 nM in assay [1] and 0.738 nM in assay [2].

With `C[C@H]1CO[C@@H](c2nc(-c3ccc(C(=O)Nc4cc(C(F)(F)F)ccn4)cc3)c3c(N)ncc(Cl)n23)CN1C(=O)C1CC1` [Example 43, 4-{8-amino-5-chloro-3-[(2R,5S)-4-(cyclopropylcarbonyl)-5-methylmorpholin-2-yl]imidazo[1,5-a]pyrazin-1-yl}-N-[4-(trifluoromethyl)pyridin-2-yl]benzamide], the IC50 in assay [1] was 562 nM; in assay [2] it was 0.784 nM.

For the compound `C[C@H]1CO[C@@H](c2nc(-c3ccc(C(=O)Nc4ccccn4)cc3)c3c(N)nccn23)CN1C(=O)C1CC1` [Example 62, 4-{8-amino-3-[(2R,5S)-4-(cyclopropylcarbonyl)-5-methylmorpholin-2-yl]imidazo[1,5-a]pyrazin-1-yl}-N-pyridin-2-ylbenzamide], the concentration for half-maximal inhibition (IC50) in assay [1] was found to be 256 nM; in assay [2], 10.8 nM.

`COc1cc(C(=O)Nc2cc(C(F)(F)F)ccn2)ccc1-c1nc([C@H]2CN(C=O)[C@@H](C)CO2)n2ccnc(N)c12` [Example 36, 4-{8-amino-3-[(2R,5S)-4-formyl-5-methylmorpholin-2-yl]imidazo[1,5-a]pyrazin-1-yl}-3-methoxy-N-[4-(trifluoromethyl)pyridin-2-yl]benzamide]: the IC50 came to 1680 nM in assay [1] and 9.31 nM in assay [2].

Consider `CCOc1cc(C(=O)Nc2cc(C(F)(F)F)ccn2)ccc1-c1nc([C@H]2CN(CC)[C@@H](C)CO2)n2c(Cl)cnc(N)c12` [Example 24, 4-{8-amino-5-chloro-3-[(2R,5S)-4-ethyl-5-methylmorpholin-2-yl]imidazo[1,5-a]pyrazin-1-yl}-3-ethoxy-N-[4-(trifluoromethyl)pyridin-2-yl]benzamide], for which the IC50 in assay [1] is 2350 nM; in assay [2], 1.54 nM.

In the case of `CCOc1cc(C(=O)Nc2cc(C(F)(F)F)ccn2)ccc1-c1nc([C@H]2CN(C(=O)[C@H](C)O)[C@@H](C)CO2)n2ccnc(N)c12` [Example 98, 4-(8-amino-3-{(2R,5S)-4-[(2S)-2-hydroxypropanoyl]-5-methylmorpholin-2-yl}imidazo[1,5-a]pyrazin-1-yl)-3-ethoxy-N-[4-(trifluoromethyl)pyridin-2-yl]benzamide], the values for the IC50 in assay [1] and in assay [2] were 1610 nM and 1.74 nM, respectively.
